In the supplement of paper PMC10307832 one finds relative viability data, which are given here for four cell lines.

Assay in all cases: relative viability (nuclei count vs DMSO), 5 days (fraction); higher = more cells survive
Compound in experiment [1]: Cc1ccccc1C(C(=O)NC1CCCCC1)N(C(=O)Cn1ccnc1C)c1cccc(F)c1 [IDH-C35] + CS(=O)(=O)N1CCN(Cc2cc3nc(-c4cccc5[nH]ncc45)nc(N4CCOCC4)c3s2)CC1 [Pictilisib] (partner 1 µM)
Summed up: (§1)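 Lung cancer cell lines were pin-tool dosed in 1536-well plates on the day after seeding, with either a lone drug or a fixed anchor-drug dose plus five library-drug doses (not always all listed) in √10 steps. Nuclei were counted on 4× images after 5 days. Relative viability is the ratio of treated-well to vehicle-well nuclei counts, with each value a median of duplicate plates.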

Compound in experiment [2]: Cc1ccccc1C(C(=O)NC1CCCCC1)N(C(=O)Cn1ccnc1C)c1cccc(F)c1 [IDH-C35] + O=C(CCCCCCC(=O)Nc1ccccc1)NO [Vorinostat] (partner 1 µM)
The method, boiled down: as §1

Compound in experiment [3]: Cc1ccccc1C(C(=O)NC1CCCCC1)N(C(=O)Cn1ccnc1C)c1cccc(F)c1 [IDH-C35] + CC(=O)Nc1cccc(-n2c(=O)n(C3CC3)c(=O)c3c(Nc4ccc(I)cc4F)n(C)c(=O)c(C)c32)c1 [Trametinib] (partner 0.02 µM)
The method, boiled down: as §1

Compound in experiment [4]: CC1=C(C(=NN1)C)CC2=C(C3=C(S2)N(C(=O)N(C3=O)C)CC(C)C)C(=O)N4C[C@@H](CO4)O + N=C(N)NC(=N)NCCc1ccccc1 [Phenformin] (partner 250 µM)
The method, boiled down:
as §1

For the cell line HCC-44, the relative viability in experiment [1] (first compound 0.08 µM) was 0.537; in experiment [1] (first compound 0.253 µM) it was 0.593; in experiment [1] (first compound 0.8 µM) it was 0.551; in experiment [1] (first compound 2.53 µM) it was 0.674; in experiment [1] (first compound 8 µM) it was 0.632; in experiment [2] (first compound 0.08 µM) it was 1.11. Also, the relative viability in experiment [2] (first compound 0.253 µM) is 1.09; in experiment [2] (first compound 0.8 µM), 1.12; in experiment [2] (first compound 2.53 µM) it was 1.13; in experiment [2] (first compound 8 µM), 1.11; in experiment [3] (first compound 0.08 µM), 1.01; in experiment [3] (first compound 0.253 µM), 1.04. For the same cell line, the relative viability in experiment [3] (first compound 0.8 µM) turned out to be 1.09; in experiment [3] (first compound 2.53 µM), 1.14; in experiment [3] (first compound 8 µM), 1.04; in experiment [4] (first compound 0.0025 µM), 0.263; in experiment [4] (first compound 0.007906 µM), 0.223; in experiment [4] (first compound 0.025 µM), 0.142. Moreover, the values for the relative viability in experiment [4] (first compound 0.07906 µM) and in experiment [4] (first compound 0.25 µM) were 0.208 and 0.225, respectively.

Take HCC-78: the relative viability was 0.211 in experiment [1] (first compound 0.08 µM); 0.243 in experiment [1] (first compound 0.253 µM); 0.199 in experiment [1] (first compound 0.8 µM); 0.243 in experiment [1] (first compound 2.53 µM); 0.219 in experiment [1] (first compound 8 µM); 0.447 in experiment [2] (first compound 0.08 µM). Also, the relative viability turned out to be 0.484 in experiment [2] (first compound 0.253 µM); 0.457 in experiment [2] (first compound 0.8 µM); 0.381 in experiment [2] (first compound 2.53 µM); 0.531 in experiment [2] (first compound 8 µM); 0.757 in experiment [3] (first compound 0.08 µM); 0.869 in experiment [3] (first compound 0.253 µM). Further, the relative viability in experiment [3] (first compound 0.8 µM) came out at 0.777; in experiment [3] (first compound 2.53 µM), 0.713; in experiment [3] (first compound 8 µM), 0.761; in experiment [4] (first compound 0.0025 µM), 0.795; in experiment [4] (first compound 0.007906 µM), 0.842; in experiment [4] (first compound 0.025 µM), 0.574. Besides, the relative viability in experiment [4] (first compound 0.07906 µM) came out at 0.671; in experiment [4] (first compound 0.25 µM), 0.575.

With HCC-366, the relative viability in experiment [1] (first compound 0.08 µM) amounted to 0.12; in experiment [1] (first compound 0.253 µM), 0.132; in experiment [1] (first compound 0.8 µM), 0.169; in experiment [1] (first compound 2.53 µM), 0.151; in experiment [1] (first compound 8 µM), 0.178; in experiment [2] (first compound 0.08 µM), 0.49. The relative viability in experiment [2] (first compound 0.253 µM) came out at 0.351; in experiment [2] (first compound 0.8 µM), 0.321; in experiment [2] (first compound 2.53 µM) it was 0.371; in experiment [2] (first compound 8 µM), 0.404; in experiment [3] (first compound 0.08 µM) it was 0.293; in experiment [3] (first compound 0.253 µM), 0.376. Further, the relative viability in experiment [3] (first compound 0.8 µM) was determined as 0.407; in experiment [3] (first compound 2.53 µM) it was 0.303; in experiment [3] (first compound 8 µM), 0.31; in experiment [4] (first compound 0.0025 µM), 0.622; in experiment [4] (first compound 0.007906 µM) it was 0.574; in experiment [4] (first compound 0.025 µM), 0.669. Further, the relative viability turned out to be 0.606 in experiment [4] (first compound 0.07906 µM) and 0.693 in experiment [4] (first compound 0.25 µM).

Take HCC-827: the relative viability in experiment [1] (first compound 0.08 µM) is 0.966; in experiment [1] (first compound 0.253 µM) it was 0.921; in experiment [1] (first compound 0.8 µM), 1.02; in experiment [1] (first compound 2.53 µM), 1.13; in experiment [1] (first compound 8 µM), 1.17; in experiment [2] (first compound 0.08 µM), 0.731. Besides, the relative viability in experiment [2] (first compound 0.253 µM) came out at 0.85; in experiment [2] (first compound 0.8 µM), 0.811; in experiment [2] (first compound 2.53 µM), 0.789; in experiment [2] (first compound 8 µM) it was 0.868; in experiment [3] (first compound 0.08 µM), 0.525; in experiment [3] (first compound 0.253 µM) it was 0.583. Also, the relative viability in experiment [3] (first compound 0.8 µM) came out at 0.462; in experiment [3] (first compound 2.53 µM) it was 0.519; in experiment [3] (first compound 8 µM) it was 0.512; in experiment [4] (first compound 0.0025 µM), 0.379; in experiment [4] (first compound 0.007906 µM) it was 0.408; in experiment [4] (first compound 0.025 µM), 0.425. Moreover, the results for the relative viability in experiment [4] (first compound 0.07906 µM) and in experiment [4] (first compound 0.25 µM) were 0.407 and 0.399, respectively.
